Source: patent US7582622B2 (N.V. Organon, priority 2003, dated 2009)

Key:
[1] = tested on: serum LH; experiment: LH suppression assay in mature male castrated rats, p.o.; format: in vivo, rat; details: for oral activity (in words): statement in the introduction, test not named; for LH-Suppression MAD po: minimal active dose suppressing serum LH for 65%, castrated male rats, p.o. 4 days daily
Procedure: The in vivo potency of the compounds of the invention was determined in a mature male castrated rat model.
In this model serum LH is high (about 20× fold higher than with intact rats, due to the absence of the negative feedback of testicular testosterone). These rats are p.o. treated for 4 days daily with a given compound of the invention in a suspension fluid of arachis oil or arachis oil +5 or 10% ethanol. Before dosing and 3 hours after the last oral dose blood is collected via tail vein and in the serum LH is determined. Potency (p.o.) of the compounds of the invention (minimal active dose, MAD) is expressed as the amount (mg/kg) of a compound of the invention which suppresses serum LH for 65% (with a 95% confidence interval).
The rat LH Time-Resolved Immuno Fluorometric Assay (TR-IFMA) has been developed in house using home made reagents, a monoclonal catching antibody directed against the β-subunit of human chorion gonadotrophin (hCG, which cross reacts with rat β-subunit) and a biotin labelled detecting antibody (rabbit polydonal antibody directed against the alfa-subunit of recombinant rat LH). Recombinant rat LH was prepared according to known methods, e.g., the method described by Hakola et aL., Molecular & Cellular Endocrinology (1997), 128, 47-56. In this two-site-IFMA, only intact rat LH is determined by a final incubation with streptavidin-europium. The detection in the IFMA is based on fluorescence of the lanthanide europium during a relative long excitation period. The concentration range of rat LH standard is 0.001-10 ng/ml, for optimal accuracy measurements of serum LH serum samples were diluted 8-times with assay buffer (J. I. van Casteren et al., Biol. Reprod. (2000), 62, 886-894).

[2] = molecular target: T1, human androgen receptor (hAR) (Homo sapiens, UniProt P10275); experiment: transactivative androgen agonistic activity, CHO cells transfected with hAR, MMTV-luciferase; format: cell-based; parameters: Androgenic Activity (%): concentration or dose not given beside the values; details: for Androgenic Activity (%): compared with 5α-dihydrotestosterone, CHO-hAR, 16 h, 37° C.
T1 construct: expressed in transfected cells; host or cells: Chinese hamster ovary cells (CHO)
T1 sequence (P10275 1-920): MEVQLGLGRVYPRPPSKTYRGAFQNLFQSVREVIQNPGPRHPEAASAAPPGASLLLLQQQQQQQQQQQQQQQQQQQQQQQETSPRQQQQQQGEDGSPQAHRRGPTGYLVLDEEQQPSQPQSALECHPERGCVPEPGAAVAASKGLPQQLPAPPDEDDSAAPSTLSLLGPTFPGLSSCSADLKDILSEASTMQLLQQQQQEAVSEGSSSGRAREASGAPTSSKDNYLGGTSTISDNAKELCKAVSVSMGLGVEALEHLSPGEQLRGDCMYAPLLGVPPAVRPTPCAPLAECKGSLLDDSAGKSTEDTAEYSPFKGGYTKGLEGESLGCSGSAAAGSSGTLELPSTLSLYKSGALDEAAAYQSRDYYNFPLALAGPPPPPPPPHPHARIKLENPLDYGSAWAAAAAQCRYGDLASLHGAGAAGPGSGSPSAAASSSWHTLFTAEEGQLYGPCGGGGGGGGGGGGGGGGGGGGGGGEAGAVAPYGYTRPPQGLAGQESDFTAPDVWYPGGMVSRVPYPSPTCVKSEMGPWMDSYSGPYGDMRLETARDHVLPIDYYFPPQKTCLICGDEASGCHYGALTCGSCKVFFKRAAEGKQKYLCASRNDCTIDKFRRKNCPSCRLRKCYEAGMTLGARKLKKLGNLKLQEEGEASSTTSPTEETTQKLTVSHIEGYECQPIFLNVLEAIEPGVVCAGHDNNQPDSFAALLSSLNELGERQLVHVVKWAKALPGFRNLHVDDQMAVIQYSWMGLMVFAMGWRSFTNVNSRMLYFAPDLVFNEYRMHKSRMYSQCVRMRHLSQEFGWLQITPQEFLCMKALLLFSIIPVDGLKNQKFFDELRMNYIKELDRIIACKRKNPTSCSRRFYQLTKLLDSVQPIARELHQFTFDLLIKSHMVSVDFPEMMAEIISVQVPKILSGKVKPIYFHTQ
Procedure: The transactivative androgen agonistic activity of the compounds of the invention was measured in Chinese hamster ovary cells (CHO) transfected with the human androgen receptor (hAR), in combination with a mouse mammary tumor virus (MMTV), and luciferase receptor gene (incubation time 16 h, temperature 37° C.) and compared with the activity of 5α-dihydrotestosterone [according to the procedure described by Schoonen, W. G. E. J. et aL., Analyt. Biochem. 261, 222-224 (1998)].

[3] = molecular target: T2, human progesterone receptor B (hPRB) (Homo sapiens, UniProt P06401); experiment: transactivative progestagenic agonistic activity, CHO cells transfected with hPRB, MMTV-luciferase; format: cell-based; parameters: Progestational Activity (%): concentration or dose not given beside the values; details: for Progestational Activity (%): compared with (16α)-16-ethyl-21-hydroxy-19-norpregn-4ene-3,20-dione, CHO-hPRB, 16 h, 37° C.; for progestagenic activity (in words): statement in the introduction, test not named
T2 construct: expressed in transfected cells; host or cells: Chinese hamster ovary cells (CHO)
T2 sequence (P06401 1-933): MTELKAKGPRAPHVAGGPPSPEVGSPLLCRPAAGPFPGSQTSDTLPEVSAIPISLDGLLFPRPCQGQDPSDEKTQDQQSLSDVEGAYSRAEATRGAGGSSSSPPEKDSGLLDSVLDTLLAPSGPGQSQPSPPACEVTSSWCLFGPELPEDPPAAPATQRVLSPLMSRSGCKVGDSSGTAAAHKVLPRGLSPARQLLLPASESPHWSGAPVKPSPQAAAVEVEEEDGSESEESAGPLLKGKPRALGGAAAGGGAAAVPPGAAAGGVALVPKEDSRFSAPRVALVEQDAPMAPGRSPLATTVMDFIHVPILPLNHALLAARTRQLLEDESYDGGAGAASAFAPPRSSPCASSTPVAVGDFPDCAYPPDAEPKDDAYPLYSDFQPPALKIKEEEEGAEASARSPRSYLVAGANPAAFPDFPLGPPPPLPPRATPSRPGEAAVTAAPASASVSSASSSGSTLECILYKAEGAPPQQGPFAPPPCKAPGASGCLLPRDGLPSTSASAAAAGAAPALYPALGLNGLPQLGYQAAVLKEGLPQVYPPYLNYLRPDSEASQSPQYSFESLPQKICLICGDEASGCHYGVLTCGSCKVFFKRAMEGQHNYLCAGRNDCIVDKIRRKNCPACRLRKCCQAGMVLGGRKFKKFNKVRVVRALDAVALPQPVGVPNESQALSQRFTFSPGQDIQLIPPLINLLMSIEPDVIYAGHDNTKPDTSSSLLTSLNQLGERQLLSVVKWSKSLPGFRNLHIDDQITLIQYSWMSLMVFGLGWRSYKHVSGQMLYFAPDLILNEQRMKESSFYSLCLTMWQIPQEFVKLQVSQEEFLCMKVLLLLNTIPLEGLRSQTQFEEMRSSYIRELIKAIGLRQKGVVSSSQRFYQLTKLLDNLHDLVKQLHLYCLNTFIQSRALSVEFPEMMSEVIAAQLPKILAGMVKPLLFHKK
Procedure: The transactivative progestagenic agonistic activity of the compounds of the invention was measured in Chinese hamster ovary cells (CHO) transfected with the human progesterone receptor B (hPRB), in combination with a mouse mammary tumor virus (MMTV), and luciferase receptor gene (incubation time 16 h, temperature 37° C.) and compared with the activity of (16α)-16-ethyl-21-hydroxy-19-norpregn-4ene-3,20-dione [according to the procedure described by Schoonen, W. G. E. J. et al., Analyt. Biochem. 261, 222-224 (1998)].

[4] = Anti-osteoporosis test in mature male castrated rats (6 weeks treatment); format: in vivo, rat; details: for Mean proportional difference in bone density: placebo intact 100%, placebo orx 0%; for BMD (gmean ± sem): orx male rats, trabecular BMD of femur
Procedure: In this test the oral efficacy of a compound of the invention for the prevention of castration-induced trabecular bone mineral density (BMD) loss in male rats was evaluated.
Mature male Wistar rats (350-400 g) were used. Orchidectomy (orx) or sham operation was performed under isoflurane anaesthesia. After recovery of anaesthesia, within 24 hours, rats were treated once daily for 6 weeks p.o. with different doses of the compounds of the invention or vehicle only (placebo intact, placebo orx) with a volume of 1 ml/kg (n=5). One day after the last administration autopsy is performed and the right femur is dissected out. Trabecular bone mineral density of the metaphysal part of the femur was measured with a pQCT (peripheral Quantitative Computed Tomography machine; XCT 960A, Stratec, Birkenfeld, Germany).

[5] = prior art statement; cited from earlier work
[6] = J. Seaman, Toxicologic Pathology (1985); cited from earlier work

SMILES	oral activity (in words) [1]	Androgenic Activity (%) [2]	Progestational Activity (%) [3]	LH-Suppression MAD po [1]	further results
CCC12CCC3C4CCC(=O)C=C4CCC3C1CCCC2O [(17aβ)-13-ethyl-17a-hydroxy-D-homogon4-en-3-one]	not orally active	–	–	–	–
CCC1(O)CCCC2C3CCC4=CC(=O)CCC4C3CCC21CC [(17aβ)13,17a-diethyl-17a-hydroxy-D-homogon-4-en-3-one]	not orally active	–	–	–	–
CCC12CCC3C4CCC(=O)C=C4CCC3C1CCCC2(C)O [(17aβ)-13-ethyl-17a-hydroxy-17a-methyl-D-homogon-4-en-3-one]	not orally active	–	–	–	–
CC1(O)CCCC2C3CCC4=CC(=O)CCC4C3CCC21C [Reference compound A, (17aβ)-17a-Hydroxy-17a-methyl-D-homoestr-4-en-3-one]	low activity upon oral administration	71.6%	98.0%	>30 mg/kg	progestagenic activity (in words) [3]: progestagenic activity; Mean proportional difference in bone density ([4]; 16 mg/kg p.o. 6 weeks): 28%; BMD (gmean ± sem) ([4]; 16 mg/kg p.o. once daily 6 weeks): 133 ± 20; prevention of trabecular bone mineral density (BMD) loss (in words) ([4]; statement in the introduction): unable to prevent trabecular bone mineral density (BMD) loss
CCC1(O)CCCC2C3C(C)CC4=CC(=O)CCC4C3CCC21C [Cpd of Example 2, (7α,17aβ)-17aethyl-17a-hydroxy-7-methyl-D-homoestr-4en-3-one]	–	9.9%	29.7%	10 mg/kg	–
CC1CC2=CC(=O)CCC2C2CCC3(C)C(O)CCCC3C12 [Reference compound B, (7α,17aβ)-17a-Hydroxy-7-methyl-D-homoestr-4-en-3-one]	not orally active	25.3%	10.6%	>30 mg/kg	androgenic activity (in words) ([2]; statement in the introduction, test not named): mixed androgenic and progestagenic profile; progestagenic activity (in words) [3]: mixed androgenic and progestagenic profile
C[C@@H]1CC2=CC(=O)CC[C@@H]2[C@H]2CC[C@@]3(C)[C@@H](CC[C@]3(C)O)[C@@H]21 [Reference compound C, (7α,17β)-17-Hydroxy-7,17-dimethylestr-4-en-3-one]	–	220%	45%	1.0 mg/kg	oral activity (in words) [5]: orally active; liver toxicity (in words) [6]: severe liver toxicity
CC1CC2=CC(=O)CCC2C2CCC3(C)C(CCCC3(C)O)C12 [Cpd of Example 1, (7α,17aβ)-17a-hydroxy-7,17a-dimethyl-D-homoestr4-en-3-one]	–	42.9%	53.3%	8.5 mg/kg	Mean proportional difference in bone density ([4]; 8 mg/kg p.o. 6 weeks): 133%; BMD (gmean ± sem) ([4]; 8 mg/kg p.o. once daily 6 weeks): 255 ± 22
